Assay results: patent US20190071416A1, “COMPOUNDS FOR TREATMENT OF CANCER AND EPIGENETICS” (Agency For Science, Technology and Research, priority 2015, published 2019)
pIC50: −log10 of the molar value.

Target: T1, SMYD3 (Homo sapiens, UniProt Q9H7B4)
T1 sequence (Q9H7B4 1-428): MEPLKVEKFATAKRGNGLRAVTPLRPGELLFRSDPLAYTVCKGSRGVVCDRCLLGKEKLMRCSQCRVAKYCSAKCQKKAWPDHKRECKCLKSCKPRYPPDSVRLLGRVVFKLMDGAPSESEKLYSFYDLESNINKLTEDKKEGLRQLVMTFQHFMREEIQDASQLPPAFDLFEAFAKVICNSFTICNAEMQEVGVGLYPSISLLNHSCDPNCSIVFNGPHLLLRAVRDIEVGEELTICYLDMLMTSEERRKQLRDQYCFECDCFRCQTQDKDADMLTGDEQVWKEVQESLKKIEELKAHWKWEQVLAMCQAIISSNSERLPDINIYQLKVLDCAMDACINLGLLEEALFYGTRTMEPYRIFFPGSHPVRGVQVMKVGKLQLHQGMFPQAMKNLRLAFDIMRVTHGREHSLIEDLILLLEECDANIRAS
Assay: SMYD3 biochemical assay (MTase-Glo, MAP3K2 peptide substrate)
Conditions: Table 3; MTase assay, MAP3K2 peptide substrate; read-out: IC50
How it was run: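 Methylation of MAP3K2 peptide (10 µM final) with SAM (1.0 µM final) by SMYD3, 30 min at room temperature. SAH formed was enzymatically converted to ATP and detected as luminescence with MTase-Glo reagents; IC50 by non-linear regression.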

Compared with `CCCOC(=O)N1CCN(C(=O)c2ccc3c(Cl)cc(-c4ccc(C(F)(F)F)cc4)nc3c2)CC1` [B066, Propyl 4-(4-chloro-2-(4-(trifluoromethyl)phenyl)quinoline-7-carbonyl)piperazine-1-carboxylate], `CCCOC(=O)N1CCN(C(=O)c2ccc3c(Cl)cc(-c4ccc(N)cc4)nc3c2)CC1` [B073, Propyl 4-(2-(4-aminophenyl)-4-chloroquinoline-7-carbonyl)piperazine-1-carboxylate] is 1.62 log units higher in pIC50: 5.43 for the first, 7.05 for the second. The second is the more potent here.

First: CCCOC(=O)N1CCN(C(=O)c2ccc3c(Cl)cc(-c4cccc(CC)c4)nc3c2)CC1 [B067, Propyl 4-(4-chloro-2-(3-ethylphenyl)quinoline-7-carbonyl)piperazine-1-carboxylate]
Second: CCCOC(=O)N1CCN(C(=O)c2ccc3c(Cl)cc(-c4cccc(N)c4)nc3c2)CC1 [B077, Propyl 4-(2-(3-aminophenyl)-4-chloroquinoline-7-carbonyl)piperazine-1-carboxylate]
The pIC50 of the first is 1.24 log units lower: 5.68 for the first, 6.92 for the second.

`CCCOC(=O)N1CCN(C(=O)c2ccc3c(Cl)cc(-c4ccc(F)c(C)c4)nc3c2)CC1` [B068, Propyl 4-(4-chloro-2-(4-fluoro-3-methylphenyl)quinoline-7-carbonyl)piperazine-1-carboxylate] and `CCCOC(=O)N1CCN(C(=O)c2ccc3c(Cl)cc(-c4ccc(F)c(OC)c4)nc3c2)CC1` [B087, Propyl 4-(4-chloro-2-(4-fluoro-3-methoxyphenyl)quinoline-7-carbonyl)piperazine-1-carboxylate] are within 0.2 log units of each other in pIC50: 5.89 for the first, 6.03 for the second.

Compared with `CCCOC(=O)N1CCN(C(=O)c2ccc3c(Cl)cc(-c4cccc(N5CCOCC5)c4)nc3c2)C[C@H]1C` [B069, Propyl (R)-4-(4-chloro-2-(3-morphohnophenyl)quinoline-7-carbonyl)-2-methylpiperazine-1-carboxylate], `CCCOC(=O)N1CCN(C(=O)c2ccc3c(Cl)cc(-c4ccc(N5CCOCC5)cc4)nc3c2)C[C@H]1C` [B090, Propyl (R)-4-(4-chloro-2-(4-morpholinophenyl)quinoline-7-carbonyl)-2-methylpiperazine-1-carboxylate] is 0.49 log units higher in pIC50: 6.62 for the first, 7.11 for the second.

First: C#Cc1cccc(-c2cc(Cl)c3ccc(C(=O)N4CCN(C(=O)OCCC)CC4)cc3n2)c1 [B070, Propyl 4-(4-chloro-2-(3-ethynylphenyl)quinoline-7-carbonyl)piperazine-1-carboxylate]
Second: C#Cc1cccc(-c2cc(Cl)c3ccc(C(=O)N4CCN(C(=O)OCCC)[C@H](C)C4)cc3n2)c1 [B071, Propyl (R)-4-(4-chloro-2-(3-ethynylphenyl)quinoline-7-carbonyl)-2-methylpiperazine-1-carboxylate]
The pIC50 of the first is 0.21 log units lower: 5.68 for the first, 5.89 for the second.

Going from `CCCOC(=O)N1CCN(C(=O)c2ccc3c(Cl)cc(-c4ccc([N+](=O)[O-])cc4)nc3c2)CC1` [B072, Propyl 4-(4-chloro-2-(4-nitrophenyl)quinoline-7-carbonyl)piperazine-1-carboxylate] to `CCCOC(=O)N1CCN(C(=O)c2ccc3c(Cl)cc(-c4ccc(OC)c(C)c4)nc3c2)CC1` [B099, Propyl 4-(4-chloro-2-(4-methoxy-3-methylphenyl)quinoline-7-carbonyl)piperazine-1-carboxylate], the pIC50 rises from 5.85 to 6.46 (0.61 log units). The second is the more potent here.

`CCCOC(=O)N1CCN(C(=O)c2ccc3c(Cl)cc(-c4ccc(N)cc4)nc3c2)C[C@H]1C` [B074, Propyl (R)-4-(2-(4-aminophenyl)-4-chloroquinoline-7-carbonyl)-2-methylpiperazine-1-carboxylate] and `CCCOC(=O)N1CCN(C(=O)c2ccc3c(Cl)cc(-c4cccc(N)c4)nc3c2)C[C@H]1C` [B078, Propyl (R)-4-(2-(3-aminophenyl)-4-chloroquinoline-7-carbonyl)-2-methylpiperazine-1-carboxylate] are the same in pIC50: 6.89 for the first, 6.89 for the second.

Compared with `CCCOC(=O)N1CCN(C(=O)c2ccc3c(Cl)cc(-c4ccc(N5CCCC5)cc4)nc3c2)C[C@H]1C` [B075, Propyl (R)-4-(4-chloro-2-(4-(pyrrolidin-1-yl)phenyl)quinoline-7-carbonyl)-2-methylpiperazine-1-carboxylate], `CCCOC(=O)N1CCN(C(=O)c2ccc3c(Cl)cc(-c4ccc(N5CCN(C)CC5)cc4)nc3c2)C[C@H]1C` [B095, Propyl (R)-4-(4-chloro-2-(4-(4-methylpiperazin-1-yl)phenyl)quinoline-7-carbonyl)-2-methylpiperazine-1-carboxylate] is 0.89 log units higher in pIC50: 6.36 for the first, 7.25 for the second. The second is the more potent here.

`CCCOC(=O)N1CCN(C(=O)c2ccc3c(Cl)cc(-c4ccc(N(C)C)cc4)nc3c2)[C@@H](C)C1` [B076, Propyl (S)-4-(4-chloro-2-(4-(dimethylamino)phenyl)quinoline-7-carbonyl)-3-methylpiperazine-1-carboxylate] and `CCCOC(=O)N1CCN(C(=O)c2ccc3c(Cl)cc(-c4ccc(CN(C)C)cc4)nc3c2)C[C@H]1C` [B098, Propyl (R)-4-(4-chloro-2-(4-((dimethylamino)methyl)phenyl)quinoline-7-carbonyl)-2-methylpiperazine-1-carboxylate] are within 0.2 log units of each other in pIC50: 6.72 for the first, 6.89 for the second.

Going from `CCCOC(=O)N1CCN(C(=O)c2ccc3c(Cl)cc(C4CC4)nc3c2)C[C@H]1C` [B079, Propyl (R)-4-(4-chloro-2-cyclopropylquinoline-7-carbonyl)-2-methylpiperazine-1-carboxylate] to `CCCOC(=O)N1CCN(C(=O)c2ccc3c(Cl)cc(-c4nccs4)nc3c2)C[C@H]1C` [B080, Propyl (R)-4-(4-chloro-2-(thiazol-2-yl)quinoline-7-carbonyl)-2-methylpiperazine-1-carboxylate], the pIC50 falls from 7.22 to 5.00 (2.22 log units).

Going from `CCCOC(=O)N1C2CCCC1CN(C(=O)c1ccc3c(Cl)cc(-c4ccccc4)nc3c1)C2` [B081, Propyl 3-(4-chloro-2-phenylquinoline-7-carbonyl)-3,9-diazabicyclo[3.3.1]nonane-9-carboxylate] to `CCCOC(=O)N1CCN(C(=O)c2ccc3c(Cl)cc(-c4cccc(NC)c4)nc3c2)C[C@H]1C` [B083, Propyl (R)-4-(4-chloro-2-(3-(methylamino)phenyl)quinoline-7-carbonyl)-2-methylpiperazine-1-carboxylate], the pIC50 rises from 6.33 to 7.24 (0.91 log units). The second is the more potent here.

`CCCOC(=O)N1CCN(C(=O)c2ccc3c(Cl)cc(-c4ccc(C(=O)N(C)C)cc4)nc3c2)C[C@H]1C` [B082, Propyl (R)-4-(4-chloro-2-(4-(dimethylcarbamoyl)phenyl)quinoline-7-carbonyl)-2-methylpiperazine-1-carboxylate] and `CCCOC(=O)N1CCN(C(=O)c2ccc3c(Cl)cc(-c4ccc(S(=O)(=O)N(C)C)cc4)nc3c2)C[C@H]1C` [B094, Propyl (R)-4-(4-chloro-2-(4-(N,N-dimethylsulfamoyl)phenyl)quinoline-7-carbonyl)-2-methylpiperazine-1-carboxylate] are within 0.2 log units of each other in pIC50: 6.16 for the first, 6.21 for the second.

Compared with `CCCOC(=O)N1CCN(C(=O)c2ccc3c(Cl)cc(-c4cccs4)nc3c2)CC1` [B084, Propyl 4-(4-chloro-2-(thiophen-2-yl)quinoline-7-carbonyl)piperazine-1-carboxylate], `CCCOC(=O)N1CCN(C(=O)c2ccc3c(Cl)cc(-c4cccs4)nc3c2)C[C@H]1C` [B085, Propyl (R)-4-(4-chloro-2-(thiophen-2-yl)quinoline-7-carbonyl)-2-methylpiperazine-1-carboxylate] is 0.41 log units higher in pIC50: 6.27 for the first, 6.68 for the second. The second is the more potent here.

`CCCOC(=O)N1CCN(C(=O)c2ccc3c(Cl)cc(-c4ccc5c(cnn5C)c4)nc3c2)C[C@H]1C` [B086, Propyl (R)-4-(4-chloro-2-(1-methyl-1H-indazol-5-yl)quinoline-7-carbonyl)-2-methylpiperazine-1-carboxylate] and `CCCOC(=O)N1CCN(C(=O)c2ccc3c(Cl)cc(-c4ccc(F)c(OC)c4)nc3c2)C[C@H]1C` [B088, Propyl (R)-4-(4-chloro-2-(4-fluoro-3-methoxyphenyl)quinoline-7-carbonyl)-2-methylpiperazine-1-carboxylate] are within 0.2 log units of each other in pIC50: 7.96 for the first, 7.85 for the second.

Going from `CCCOC(=O)N1CCN(C(=O)c2ccc3c(Cl)cc(-c4ccc(-n5ccnc5)cc4)nc3c2)C[C@H]1C` [B089, Propyl (R)-4-(2-(4-(1H-imidazol-1-yl)phenyl)-4-chloroquinoline-7-carbonyl)-2-methylpiperazine-1-carboxylate] to `CCCOC(=O)N1CCN(C(=O)c2ccc3c(Cl)cc(-c4cccc(-n5cnnc5)c4)nc3c2)C[C@H]1C` [B096, Propyl (R)-4-(2-(3-(4H-1,2,4-triazol-4-yl)phenyl)-4-chloroquinoline-7-carbonyl)-2-methylpiperazine-1-carboxylate], the pIC50 falls from 7.19 to 6.51 (0.68 log units).

Compared with `CCCOC(=O)N1CCN(C(=O)c2ccc3c(Cl)cc(-c4ccnn4C)nc3c2)[C@@H](C)C1` [B091, Propyl (S)-4-(4-chloro-2-(1-methyl-1H-pyrazol-5-yl)quinoline-7-carbonyl)-3-methylpiperazine-1-carboxylate], `CCCOC(=O)N1CCN(C(=O)c2ccc3c(Cl)cc(-c4ccc(OC)c(CN)c4)nc3c2)CC1` [B097, Propyl 4-(2-(3-(aminomethyl)-4-methoxyphenyl)-4-chloroquinoline-7-carbonyl)piperazine-1-carboxylate] is 1.84 log units higher in pIC50: 5.12 for the first, 6.96 for the second. The second is the more potent here.

First: CCCOC(=O)N1CCN(C(=O)c2ccc3c(Cl)c(C)c(-c4ccc(C(N)=O)cc4)nc3c2)CC1 [B092, Propyl 4-(2-(4-carbamoylphenyl)-4-chloro-3-methylquinoline-7-carbonyl)piperazine-1-carboxylate]
Second: CCCOC(=O)N1CCN(C(=O)c2ccc3c(Cl)c(C)c(-c4ccc(CN)cc4)nc3c2)CC1 [B093, Propyl 4-(2-(4-(aminomethyl)phenyl)-4-chloro-3-methylquinoline-7-carbonyl)piperazine-1-carboxylate]
The pIC50 of the first is 0.78 log units lower: 6.60 for the first, 7.38 for the second. The second is the more potent here.
